Measurements taken from US8703483B2, “Reagents and methods for using human embryonic stem cells to evaluate toxicity of pharmaceutical compounds and other chemicals” (Wisconsin Alumni Research Foundation, priority 2006, dated 2014).

Tested on: human embryonic stem cells
Experiment: Metabolite profiling (LC/ESI-TOF mass spectrometry) of extracellular media of hESCs treated with alcohol
Format: cell-based
Conditions: ETOH 0.3, 24 H
Text: Binned masses were annotated in silico by querying the neutral masses in several different databases. These databases included Metlin, Biological Magnetic Resonance Data Bank (BMRB), NIST Chemistry WebBook, and the Human Metabolome Database. A mass was considered identified when its neutral mass was within 10 ppm of a known compound annotated in one of the databases listed above.

CCO [ETOH]
Fold: 5-Methoxytryptophan, mass 234.125, RT 47.0879: −1.632 fold | Fold: GABA analogue, mass 171.1244, RT 26.70635: 3.755 fold | Fold: Hexylamine, mass 101.1201, RT 10.21225: 2.192 fold | Fold: N-Methyl-2-pyrrolidinone, mass 99.0689, RT 15.48433: 1.468 fold | Fold: Unknown, mass 83.0372, RT 85.57399: 2.472 fold | Fold: Unknown, mass 99.1043, RT 52.01225: 3.331 fold | Fold: Unknown, mass 130.9541, RT 88.64043: 2.025 fold | Fold: Unknown, mass 148.0052, RT 3.958833: −1.73 fold | Fold: Unknown, mass 153.0811, RT 27.80141: −1.6976 fold | Fold: Unknown, mass 161.0805, RT 14.22357: −6.435 fold | Fold: Unknown, mass 178.5546, RT 28.52393: −2.764 fold | Fold: Unknown, mass 194.0836, RT 22.61355: −1.703 fold | Fold: Unknown, mass 222.0401, RT 27.57188: −2.112 fold | Fold: Unknown, mass 223.119, RT 13.6845: −2.74 fold | Fold: Unknown, mass 229.2025, RT 32.9941: −1.377 fold | Fold: Unknown, mass 237.0041, RT 3.673694: 2.989 fold | Fold: Unknown, mass 239.9592, RT 5.176232: 1.64 fold | Fold: Unknown, mass 267.2543, RT 40.75868: −1.496 fold | Fold: Unknown, mass 271.9364, RT 4.86619: 4.07 fold | Fold: Unknown, mass 275.1193, RT 22.86183: −2.237 fold | Fold: Unknown, mass 288.2632, RT 75.76147: 1.969 fold | Fold: Unknown, mass 294.1531, RT 24.21651: −1.892 fold | Fold: Unknown, mass 298.1537, RT 66.35884: 3.758 fold | Fold: Unknown, mass 299.1929, RT 19.66398: −1.571 fold | Fold: Unknown, mass 303.8875, RT 4.954547: 2.07 fold | Fold: Unknown, mass 313.199, RT 44.09424: 2.292 fold | Fold: Unknown, mass 324.1666, RT 30.19245: −1.593 fold | Fold: Unknown, mass 337.2012, RT 8.542672: 1.287 fold | Fold: Unknown, mass 340.9252, RT 5.033976: −1.836 fold | Fold: Unknown, mass 342.1482, RT 68.02448: −1.853 fold | Fold: Unknown, mass 360.1321, RT 18.50245: −2.289 fold | Fold: Unknown, mass 362.2787, RT 83.72506: −2.542 fold | Fold: Unknown, mass 378.2956, RT 41.28494: 1.636 fold | Fold: Unknown, mass 393.1889, RT 15.90129: −1.511 fold | Fold: Unknown, mass 440.0284, RT 54.46495: 2.51 fold | Fold: Unknown, mass 444.2237, RT 51.58546: 2.242 fold | Fold, Unknown metabolite, Mass 820.8181 (retention time 4.613879): −1.851 | Fold, Unknown metabolite, Mass 711.8344 (retention time 4.826824): −2.256 | Fold, Unknown metabolite, Mass 913.8074 (retention time 5.217833): −1.885 | Fold, Unknown metabolite, Mass 888.8041 (retention time 5.259716): 1.222 | Fold, Unknown metabolite, Mass 922.0048 (retention time 5.387775): −2.755 | Fold, Unknown metabolite, Mass 555.8505 (retention time 5.742094): −1.518 | Fold, metabolite Ethanesulfonic acid, Mass 579.2519 (retention time 5.903169): −1.48 | Fold, metabolite Oxidized glutathione, Mass 612.1509 (retention time 8.056862): −1.595 | Fold, Unknown metabolite, Mass 485.204 (retention time 10.8217): 2.038 | Fold, Unknown metabolite, Mass 482.1942 (retention time 10.82859): −1.528 | Fold, Unknown metabolite, Mass 666.3836 (retention time 16.3338): −1.371 | Fold, metabolite L-Urobilinogen, Mass 596.3543 (retention time 25.14927): 1.835 | Fold, Unknown metabolite, Mass 464.225 (retention time 25.3287): −1.717 | Fold, Unknown metabolite, Mass 455.2052 (retention time 28.27806): −2.509 | Fold, Unknown metabolite, Mass 447.2509 (retention time 29.86415): 2.103 | Fold, Unknown metabolite, Mass 444.2789 (retention time 30.05687): −1.835 | Fold, Unknown metabolite, Mass 707.3933 (retention time 30.43889): −1.792 | Fold, Unknown metabolite, Mass 466.2921 (retention time 30.46172): −1.959 | Fold, Unknown metabolite, Mass 488.305 (retention time 30.83472): −2.185 | Fold, Unknown metabolite, Mass 488.8071 (retention time 30.88032): −1.92 | Fold, Unknown metabolite, Mass 510.3182 (retention time 31.20706): −2.264 | Fold, Unknown metabolite, Mass 510.8202 (retention time 31.22083): −2.045 | Fold, Unknown metabolite, Mass 523.8187 (retention time 31.53434): −2.173 | Fold, Unknown metabolite, Mass 591.3789 (retention time 31.54325): −1.982 | Fold, Unknown metabolite, Mass 532.8335 (retention time 31.58889): −2.169 | Fold, Unknown metabolite, Mass 554.3444 (retention time 31.8519): −2.37 | Fold, Unknown metabolite, Mass 554.8471 (retention time 31.891): −2.297 | Fold, Unknown metabolite, Mass 576.3582 (retention time 32.15777): −2.209 | Fold, Unknown metabolite, Mass 541.3274 (retention time 32.24719): −2.123 | Fold, Unknown metabolite, Mass 611.871 (retention time 32.70236): −2.192 | Fold, Unknown metabolite, Mass 620.8861 (retention time 32.73907): −2.321 | Fold, Unknown metabolite, Mass 642.397 (retention time 32.95522): −2.211 | Fold, Unknown metabolite, Mass 677.9101 (retention time 33.48766): −2.647 | Fold, Unknown metabolite, Mass 463.2914 (retention time 33.5733): −1.665 | Fold, Unknown metabolite, Mass 466.615 (retention time 33.68894): −3.279 | Fold, Unknown metabolite, Mass 774.4767 (retention time 34.33545): −2.342 | Fold, Unknown metabolite, Mass 521.9924 (retention time 34.35986): −1.584 | Fold, Unknown metabolite, Mass 751.4193 (retention time 35.028): −1.703 | Fold, metabolite Neu5Acalpha2-3Galbeta1-4Glcbeta-Sp, Mass 702.2497 (retention time 40.84822): 1.283 | Fold, Unknown metabolite, Mass 449.2611 (retention time 44.98056): −3.471 | Fold, Unknown metabolite, Mass 467.3804 (retention time 46.51446): −2.135 | Fold, Unknown metabolite, Mass 518.3914 (retention time 46.57666): −2.707 | Fold, Unknown metabolite, Mass 539.4374 (retention time 51.52268): −1.93 | Fold, Unknown metabolite, Mass 446.0431 (retention time 54.8719): −2.221 | Fold, Unknown metabolite, Mass 707.4296 (retention time 56.18269): −2.434 | Fold, Unknown metabolite, Mass 611.4952 (retention time 56.3513): −1.9811 | Fold, Unknown metabolite, Mass 765.5211 (retention time 69.32865): 1.884 | Fold, Unknown metabolite, Mass 482.3062 (retention time 72.7735): −2.618
